Data published in patent publication US9856232B1, “Dihydropyrimidinone derivatives” (KING SAUD UNIVERSITY, priority 2017, dated 2018).

What was measured:
[1] = test system: Gastric lesions induced by 80% ethanol; test: Gastric lesions induced by ethanol (ulcer index by severity scores); format: in vivo, Albino Wistar rats; settings: Rattus norvegicus, po, vs 80% EtOH group, read-out: Gastric lesions induced by 80% ethanol, % change; for inhibition in vivo at 12.5 mg/kg: compound 12.5 mg/kg; for inhibition in vivo at 25 mg/kg: compound 25 mg/kg; for inhibition in vivo at 50 mg/kg: compound 50 mg/kg
Description: Albino Wistar rats of either sex, approximately the same age, weighing 150 to 200 g and fed on a diet of standard chow were used in this study. They were randomly divided into experimental groups of six rats each. Compounds (N-1 to N-18) 12.5, 25, and 50 mg/kg were given orally in the anti-ulcer studies and intraperitoneally for gastric secretion evaluation. The rats were sacrificed, and the stomachs removed and opened along the greater curvature, After washing with saline, the gastric lesions were quantified by a person unaware of the treatments. The animal study protocol was approved by the Research and Ethics Committee of the Experimental Animal Care Society, College of Pharmacy, King Saud University, Riyadh, Saudi Arabia.
Gastric lesions induced by ethanol: Albino rats of either sex weighing between (150-200 g) are divided into groups. The animals were fasted for 24 hours with free access to water. Animals were given test drugs or standard drug. One hour later 1 mL/200 gm of 80% ethanol is administered orally to each animal. The animals were anaesthetized 1 hour latter with anesthetic ether and stomach was incised along the greater curvature and ulceration was scored. The number of ulcers and the length of each ulcer were measured. Ulcer index was calculated using severity scores. The mucosal damage was examined by means of a magnifying glass. For each stomach the mucosal damage was assessed according to the following scoring system: 0.5 redness; 1.0 spot ulcers; 1.5 hemorrhagic streaks; 2.0 ulcers<3, but≦5; 3.0 ulcers>5. Table 1 provides the effect of compounds on gastric lesions induced by 80% ethanol (mean±SE).

melting point [°C]	Structure (SMILES)	inhibition in vivo at 12.5 mg/kg [1] [%]	inhibition in vivo at 25 mg/kg [1] [%]	inhibition in vivo at 50 mg/kg [1] [%]
135 to 137	COc1ccc(C2NC(=O)NC=C2C(=O)c2ccc(N3CCCCC3)cc2)c(OC)c1 (centres unmarked) [Compound N-18, 4-(2,4-Dimethoxyphenyl)-5-[4-(piperidin-1-yl)benzoyl]-3,4-dihydropyrimiden-2(1H)-one]	6.4	16.1	22.5
230 to 232	O=C1NC=C(C(=O)c2ccc(N3CCCCC3)cc2)C(c2ccc(Cl)cc2)N1 (centres unmarked) [Compound N-5, 4-(4-Chlorophenyl)-5-[4-(piperidin-1-yl)benzoyl]-3,4-dihydropyrimidin-2(1H)-one]	–	7.1	10.7
220 to 222	O=C1NC=C(C(=O)c2ccc(N3CCCCC3)cc2)C(c2ccccc2)N1 (centres unmarked) [Compound N-1, 4-Phenyl-5-[4-(piperidin-1-yl)benzoyl]-3,4-dihydropyrimidin-2(1H)-one]	–	–	–
160 to 162	COc1cccc(C2NC(=O)NC=C2C(=O)c2ccc(N3CCCCC3)cc2)c1 (centres unmarked) [Compound N-12, 4-(3-Methoxyphenyl)-5-[4-(piperidin-1-yl)benzoyl]-3,4-dihydropyrimidin-2(1H)-one]	–	7.1	10.7
200 to 202	CCOc1ccc(C2NC(=O)NC=C2C(=O)c2ccc(N3CCCCC3)cc2)cc1 (centres unmarked) [Compound N-13, 4-(4-Ethoxyphenyl)-5-[4-(piperidin-1-yl)benzoyl]-3,4-dihydropyrimidin-2(1H)-one]	–	7.1	14.2
190 to 192	O=C1NC=C(C(=O)c2ccc(N3CCCCC3)cc2)C(c2cccc(O)c2)N1 (centres unmarked) [Compound N-10, 4-(3-Hydroxyphenyl)-5-[4-(piperidin-1-yl)benzoyl]-3,4-dihydropyrimidin-2(1H)-one]	14	17.8	21.4
135 to 137	COc1cc(C2NC(=O)NC=C2C(=O)c2ccc(N3CCCCC3)cc2)cc(OC)c1OC (centres unmarked) [Compound N-16, 4-(3,4,5-Trimethoxyphenyl)-5-[4-(piperidin-1-yl)benzoyl]-3,4-dihydropyrimidin-2(1H)-one]	7.1	17.8	21.4
145 to 147	COc1ccc(C2NC(=O)NC=C2C(=O)c2ccc(N3CCCCC3)cc2)cc1OC (centres unmarked) [Compound N-7, 4-(3,4-Dimethoxyphenyl)-5-[4-(piperidin-1-yl)benzoyl]-3,4-dihydropyrimidin-2(1H)-one]	10	26.6	33.3
155 to 157	COc1cc(OC)c(C2NC(=O)NC=C2C(=O)c2ccc(N3CCCCC3)cc2)cc1OC (centres unmarked) [Compound N-14, 4-(2,4,5-Trimethoxyphenyl)-5-[4-(piperidin-1-yl)benzoyl]-3,4-dihydropyrimiden-2(1H)-one]	10.3	27.5	37.9
195 to 197	O=C1NC=C(C(=O)c2ccc(N3CCCCC3)cc2)C(c2ccc(Cl)cc2Cl)N1 (centres unmarked) [Compound N-6, 4-(2,4-Dichlorophenyl)-5-[4-(piperidin-1-yl)benzoyl]-3,4-dihydropyrimidin-2(1H)-one]	–	7.1	10.7
185 to 187	O=C1NC=C(C(=O)c2ccc(N3CCCCC3)cc2)C(c2cccc([N+](=O)[O-])c2)N1 (centres unmarked) [Compound N-4, 4-(3-Nitrophenyl)-5-[4-(piperidin-1-yl)benzoyl]-3,4-dihydropyrimidin-2(1H)-one]	–	–	7.4
190 to 192	O=C1NC=C(C(=O)c2ccc(N3CCCCC3)cc2)C(c2ccccc2[N+](=O)[O-])N1 (centres unmarked) [Compound N-2, 4-(2-Nitrophenyl)-5-[4-(piperidin-1-yl)benzoyl]-3,4-dihydropyrimidine-2(1H)-one]	14.2	21.4	28.5
140 to 142	COc1cc(OC)c(C2NC(=O)NC=C2C(=O)c2ccc(N3CCCCC3)cc2)c(OC)c1 (centres unmarked) [Compound N-17, 4-(2,4,6-Trimethoxyphenyl)-5-[4-(piperidin-1-yl)benzoyl]-3,4-dihydropyrimidin-2(1H)-one]	–	27.5	37.9
210 to 212	O=C1NC=C(C(=O)c2ccc(N3CCCCC3)cc2)C(c2ccc(O)cc2)N1 (centres unmarked) [Compound N-9, 4-(4-Hydroxyphenyl)-5-[4-(piperidin-1-yl)benzoyl]-3,4-dihydropyrimidin-2(1H)-one]	–	2	–
